Test results taken from patent EP4186514A1, “PHARMACEUTICAL COMPOSITION FOR PREVENTING OR TREATING CHOLANGITIS OR LIVER DISEASE CAUSED BY CHOLANGITIS COMPRISING ADENOSINE DERIVATIVE” (Future Medicine Co., Ltd., priority 2021, dated 2023).

Legend:
[1] = test system: BDL mouse model; assay: Efficacy in bile duct ligation (BDL) mouse model of cholangitis and liver disease; type: in vivo, C57BL/6 mice; settings: for Hyaluronic acid values reduced: serum ELISA, compared to BDL control group (G2)
Method: After 23 C57BL/6 mice were prepared and subjected to quarantine and acclimation, a bile duct ligation (BDL) surgery and a sham surgery were performed by dividing the animals into groups.
The BDL rodent model is one of the most commonly used methods to induce obstructive cholestatic injury (Tag, C. G et al., Bile Duct Ligation in Mice: Induction of Inflammatory Liver Injury and Fibrosis by Obstructive Cholestasis, J. Vis. Exp. (96), e52438, doi: 10.3791/52438 (2015)). The BDL model induces liver fibrosis and inflammation by causing obstructive cholestasis, and since such symptoms are generally observed in patients with PBC after stage II, the corresponding model may adequately reflect an important aspect of PBC pathology. The advantages of the BDL model are technical validity, reproducibility, and the short time it takes to reach the pathogenomonic status of human portal hypertension.
The surgery day was set to day 0, and the test material was orally administered once a day for 2 weeks from day 1 to day 14. The dose was 10 mL/kg based on the body weight measured before administration. As a test material, a compound of formula A mixed with 0.5% methylcellulose (MC), which is a vehicle, was used, and only the vehicle was used in the control.
The treatment contents of each group are summarized as in the following Table 1.
Blood was collected through the abdominal vein under respiratory anesthesia on day 14, and serum was isolated. After blood collection, liver tissue was collected and weighed, half of the left lateral lobe from the tissue was placed in a tube and immersed in liquid nitrogen, and the other half was fixed in neutral formalin. • Blood biochemical analysis: aspartate aminotransferase (AST), alanine aminotransferase (ALT), alkaline phosphatase (ALP), γ-glutamyl transpeptidase (GGT) and total bilirubin (T-BIL) were measured using a serum biochemical analyzer (Accute, Toshiba). In addition, after blood collection, the body weight was measured by collecting liver tissue. • mRNA expression: RNA was extracted using a portion of the left lateral lobe removed from the liver tissue, cDNA was synthesized using an RNase inhibitor (DR22-R10k, Solgent, Korea) and DiaStar ™ RT Kit, and qRT-PCR was performed using Power SYBR Green PCR Master Mix (Applied Biosystems by Thermo Fisher Scientific, USA).
The following Table 2 lists sequences of primers of mouse Gapdh, Acta2(actin alpha 2 chain), Col1a1(proalpha1(I) chain) and tissue inhibitor of metalloproteinases-1 (Timp1) used for qRT-PCR.
• Analysis of cytokine levels: TNF-α, IL-1β and hyaluronic acid levels in serum were measured using an ELISA kit. • Analysis of hydroxyproline: a portion of the left lateral lobe of liver tissue was extracted, and the hydroxyproline value of liver lysate was measured by a microplate reader (SpectraMax ABS Plus, Molecular Devices) using a hydroxyproline assay kit (Abcam).
The experimental results are shown as mean ± SD, and the test material-administered group was compared with the vehicle control (BDL, G2). Statistical analysis was performed using one-way ANOVA followed by Fisher's least significant difference test using GraphPad Prism (version 5.01) and SPSS (version 24) software. P < 0.05 was considered statistically significant.

[2] = Kinetic solubility; type: physicochemical; settings: listed as compound of the formula A
Method: (§1) In order to test the physicochemical properties of the adenosine derivative of the inventive concept, experiments were conducted on the compound of the formula A in vitro, and the results are shown in Table 3. Plasma stability and protein binding were measured using rat and human plasma.

[3] = PAMPA; type: in vitro ADME
Method: as §1

[4] = Plasma stability, human plasma; type: in vitro ADME
Method: as §1

[5] = Pharmacokinetic test in rats (Experimental Examples 3 and 4); type: in vivo; settings: male, SD, rat, plasma, po
Method: In order to test the ADME properties of the adenosine derivative of the inventive concept after oral administration, pharmacokinetic properties of the compound of the formula A were measured in vivo.
Intravenous administration was performed through a tube inserted into the femoral vein, and oral administration was performed using oral gavage.
After the administration, the experimental animals' blood was taken at predetermined time intervals for 24 hours. Then, the blood was centrifuged to separate plasma. The plasma samples were pretreated with a suitable organic solvent, and then the concentration of the plasma samples was analyzed by LC-MS/MS. The blood concentration-time data of the compound of the formula A was analyzed using WinNonlin (Pharsight, USA), and graphs of the blood concentration-time data are shown in FIGS. 5 through 9. The results of noncompartmental pharmacokinetic parameters calculated from the blood concentration-time data are shown in Tables 5 through 9. In FIGS. 5 through 9, I.V. represents an intravenous administration group, P.O. represents an oral administration group, and the definition of each parameter in Tables 5 through 9 is shown in Table 10.
Thus, the adenosine derivative of the inventive concept is more suitable for oral administration than for intravenous administration.

[6] = Cytotoxicity, Cyto X cell viability assay kit; type: cell-based; settings: in each cell line
[7] = test system: each cell line; assay: Cytotoxicity, Cyto X cell viability assay kit; type: cell-based; settings: summary Table 11
[8] = biological target: hERG channel protein (Homo sapiens, UniProt Q12809); assay: hERG ligand binding assay (fluorescence polarization)
hERG channel protein, sequence (Q12809 whole entry): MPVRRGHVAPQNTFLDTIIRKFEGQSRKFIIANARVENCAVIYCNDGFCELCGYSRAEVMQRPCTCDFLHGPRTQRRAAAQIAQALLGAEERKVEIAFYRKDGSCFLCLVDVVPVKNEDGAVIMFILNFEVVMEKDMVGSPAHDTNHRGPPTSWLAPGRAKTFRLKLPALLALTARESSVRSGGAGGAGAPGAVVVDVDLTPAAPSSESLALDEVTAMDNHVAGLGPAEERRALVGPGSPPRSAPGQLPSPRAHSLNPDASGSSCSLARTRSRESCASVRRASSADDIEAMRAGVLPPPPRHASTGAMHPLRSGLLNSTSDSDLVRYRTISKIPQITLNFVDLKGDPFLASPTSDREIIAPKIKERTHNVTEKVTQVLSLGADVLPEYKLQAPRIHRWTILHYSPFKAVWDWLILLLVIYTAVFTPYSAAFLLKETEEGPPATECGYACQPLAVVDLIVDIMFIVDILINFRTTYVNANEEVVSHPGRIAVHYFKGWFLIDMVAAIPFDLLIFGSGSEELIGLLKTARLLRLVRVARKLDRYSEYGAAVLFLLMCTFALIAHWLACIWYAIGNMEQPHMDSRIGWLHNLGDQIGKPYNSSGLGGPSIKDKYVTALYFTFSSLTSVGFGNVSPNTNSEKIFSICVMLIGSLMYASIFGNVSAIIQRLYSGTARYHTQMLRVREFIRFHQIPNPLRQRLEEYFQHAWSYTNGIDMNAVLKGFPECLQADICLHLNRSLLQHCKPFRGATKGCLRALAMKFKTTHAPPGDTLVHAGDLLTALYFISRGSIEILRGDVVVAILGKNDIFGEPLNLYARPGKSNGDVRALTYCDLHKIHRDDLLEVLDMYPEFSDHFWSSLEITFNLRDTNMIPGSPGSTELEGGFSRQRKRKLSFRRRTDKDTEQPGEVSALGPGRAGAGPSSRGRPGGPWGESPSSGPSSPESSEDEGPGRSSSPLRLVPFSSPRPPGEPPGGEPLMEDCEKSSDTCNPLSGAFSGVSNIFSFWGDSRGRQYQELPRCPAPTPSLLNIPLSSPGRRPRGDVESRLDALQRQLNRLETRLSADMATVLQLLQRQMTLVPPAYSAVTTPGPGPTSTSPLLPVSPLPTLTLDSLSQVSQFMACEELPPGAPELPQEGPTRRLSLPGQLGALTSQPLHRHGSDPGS
From the text: In order to test the hERG ligand binding assay of the compound of the formula A, a non-electrophysiological method was used to evaluate heart stability by evaluating fluorescence polarization according to the degree of hERG channel protein binding of a red fluorescent hERG channel ligand tracer.

[9] = biological target: T1, A1 adenosine receptor (Homo sapiens, UniProt P30542); assay: Radioligand binding affinity, A1 adenosine receptor ([3H]CCPA, CHO cells); set-up: % hA1: dose or concentration left out as unconfirmed; settings: percentage inhibition of specific binding of [3H]CCPA
T1 construct: expressed in transfected cells; host or cells: CHO cells (ATCC No. CCL-61)
T1 sequence (P30542 1-326): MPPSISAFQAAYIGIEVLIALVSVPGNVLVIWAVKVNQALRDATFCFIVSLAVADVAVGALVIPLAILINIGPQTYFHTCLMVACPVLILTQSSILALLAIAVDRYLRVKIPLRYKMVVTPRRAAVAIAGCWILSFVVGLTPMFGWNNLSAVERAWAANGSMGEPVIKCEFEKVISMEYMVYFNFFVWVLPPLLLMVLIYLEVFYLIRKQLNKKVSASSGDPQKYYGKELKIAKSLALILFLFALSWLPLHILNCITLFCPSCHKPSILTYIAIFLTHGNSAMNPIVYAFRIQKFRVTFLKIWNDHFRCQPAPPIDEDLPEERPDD
Method: CHO cells (ATCC No. CCL-61), in which A1 and A3 adenosine receptors were expressed, were cultured in F-12 media (Gibco, U.S.A.) supplemented with 10% fetal bovine serum (FBS) and penicillin/streptomycin (100 units/ml and 100 g/ml), at 37° C. in a 5% CO2 atmosphere. […] Incubation for 1 hr in a 37° C. incubator was followed by rapid filtration in a vacuum using a cell collector (TOMTEC, U.S.A.). Subsequently, the test tubes were washed three times with 3 ml of the buffer before radioactivity was measured using a γ-counter. […] Ki for binding affinity was determined by subtracting the non-specific binding value from the total binding value. On the basis of the specific binding values, the samples were analyzed for binding affinity to various adenosine receptors.

[10] = biological target: T2, A2A adenosine receptor (Homo sapiens, UniProt P29274); assay: Radioligand binding affinity, A2A adenosine receptor ([3H]CGS-21680, HEK 293 cell); settings: percentage inhibition of specific binding of 10 µM
T2 construct: expressed in transfected cells; host or cells: HEK 293 cell
T2 sequence (P29274 whole entry): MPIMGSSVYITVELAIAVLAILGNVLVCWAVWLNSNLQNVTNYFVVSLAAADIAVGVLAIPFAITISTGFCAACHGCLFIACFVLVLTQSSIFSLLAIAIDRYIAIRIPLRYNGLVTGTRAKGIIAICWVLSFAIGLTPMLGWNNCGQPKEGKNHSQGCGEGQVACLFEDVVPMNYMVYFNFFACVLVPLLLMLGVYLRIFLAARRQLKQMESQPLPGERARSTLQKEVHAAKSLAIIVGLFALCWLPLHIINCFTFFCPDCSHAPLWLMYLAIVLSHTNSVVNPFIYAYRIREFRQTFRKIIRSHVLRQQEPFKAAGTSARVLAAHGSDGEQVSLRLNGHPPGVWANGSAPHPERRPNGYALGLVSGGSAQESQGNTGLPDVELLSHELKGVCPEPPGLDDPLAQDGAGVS
Method: The adenosine derivatives of the present invention were assayed for binding affinity and selectivity for A1, A2A and A3 receptors among human adenosine receptor (hAR) as follows.
Adenosine deaminase was added alone or in combination with a radioactive ligand when cerebral meninges were incubated at 30° C. for 30 min. Each of the compounds synthesized in the examples was measured for IC50 at least 6 different concentrations, and the measurements were analyzed using SigmaPlot software to determine Ki values.

[11] = 10 mg/kg oral once a day (G3), serum day 14, compared with BDL control group (G2)

With `O[C@@H]1[C@H](O)CS[C@H]1n1cnc2c(NCc3cccc(Cl)c3)nc(Cl)nc21` [Example 2, (2R,3R,4S)-2-(2-chloro-6-(3-chlorobenzylamino)-9H-purin-9-yl)tetrahydrothiophen-3,4-diol] the “content of liver hydroxyproline decreased” value ([1]; 10 mg/kg (G3), liver lysate) was 39%, the “Hyaluronic acid values reduced” value ([1]; 10 mg/kg (G3)) was 51% and the AAR decreased [1, 11] was 21%. The ALT decreased [1, 11] was 37%, the AST decreased [1, 11] was 48% and the “Hyaluronic acid values reduced” value ([1]; 30 mg/kg (G4)) was 47%. For the same compound, the AST decreased ([1]; 30 mg/kg oral once a day (G4), serum day 14, compared with BDL control group (G2)) was 38%, the “Acta2 mRNA levels” value ([1]; liver tissue, qRT-PCR, BDL groups G3 (10 mg/kg) and G4 (30 mg/kg)) was “decreased” and the Kinetic solubility [2] was 148.8 µg/mL. It also gave a PAMPA [3] of -4.49, a Plasma stability [4] of 98.9 and a bioavailability ([5]; read-out: bioavailability Ft) of no less than 99.9%. For the same compound, the half-life ([5]; read-out: half-life T1/2) was no less than 3.34 h, the IC50 [6] was no less than 10 µM and the “Toxicity, Cytotoxicity evaluation” value [7] was “Not detected”. For the same compound, the “inhibition rate (hERG ligand binding)” value ([8]; 10 µM of the compound) was no more than 50%, the “Toxicity, hERG ligand binding assay evaluation” value ([8]; summary Table 11) was “Not detected” and the “% hA1” value [9] was 37.9%. The “% hA2A” value [10] was 17.7%.
